Measured values reported in patent publication US9458110B2, “Phenylpyrazole derivatives as potent ROCK1 and ROCK2 inhibitors” (BRISTOL-MYERS SQUIBB COMPANY, priority 2013, dated 2016).

How the values were obtained:
ROCK1 = ROCK1 (Homo sapiens (Human), UniProt Q13464); assay: ROCK assay (Caliper LABCHIP peptide phosphorylation), ROCK1; type: biochemical; conditions: 5 μM ATP, 1.5 μM peptide substrate;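 note: Read-out is separation of phosphorylated from unphosphorylated peptide, with kinase activity inhibition computed at every concentration of a dose-response series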
Chain of ROCK1 (Q13464 whole entry, species assumed): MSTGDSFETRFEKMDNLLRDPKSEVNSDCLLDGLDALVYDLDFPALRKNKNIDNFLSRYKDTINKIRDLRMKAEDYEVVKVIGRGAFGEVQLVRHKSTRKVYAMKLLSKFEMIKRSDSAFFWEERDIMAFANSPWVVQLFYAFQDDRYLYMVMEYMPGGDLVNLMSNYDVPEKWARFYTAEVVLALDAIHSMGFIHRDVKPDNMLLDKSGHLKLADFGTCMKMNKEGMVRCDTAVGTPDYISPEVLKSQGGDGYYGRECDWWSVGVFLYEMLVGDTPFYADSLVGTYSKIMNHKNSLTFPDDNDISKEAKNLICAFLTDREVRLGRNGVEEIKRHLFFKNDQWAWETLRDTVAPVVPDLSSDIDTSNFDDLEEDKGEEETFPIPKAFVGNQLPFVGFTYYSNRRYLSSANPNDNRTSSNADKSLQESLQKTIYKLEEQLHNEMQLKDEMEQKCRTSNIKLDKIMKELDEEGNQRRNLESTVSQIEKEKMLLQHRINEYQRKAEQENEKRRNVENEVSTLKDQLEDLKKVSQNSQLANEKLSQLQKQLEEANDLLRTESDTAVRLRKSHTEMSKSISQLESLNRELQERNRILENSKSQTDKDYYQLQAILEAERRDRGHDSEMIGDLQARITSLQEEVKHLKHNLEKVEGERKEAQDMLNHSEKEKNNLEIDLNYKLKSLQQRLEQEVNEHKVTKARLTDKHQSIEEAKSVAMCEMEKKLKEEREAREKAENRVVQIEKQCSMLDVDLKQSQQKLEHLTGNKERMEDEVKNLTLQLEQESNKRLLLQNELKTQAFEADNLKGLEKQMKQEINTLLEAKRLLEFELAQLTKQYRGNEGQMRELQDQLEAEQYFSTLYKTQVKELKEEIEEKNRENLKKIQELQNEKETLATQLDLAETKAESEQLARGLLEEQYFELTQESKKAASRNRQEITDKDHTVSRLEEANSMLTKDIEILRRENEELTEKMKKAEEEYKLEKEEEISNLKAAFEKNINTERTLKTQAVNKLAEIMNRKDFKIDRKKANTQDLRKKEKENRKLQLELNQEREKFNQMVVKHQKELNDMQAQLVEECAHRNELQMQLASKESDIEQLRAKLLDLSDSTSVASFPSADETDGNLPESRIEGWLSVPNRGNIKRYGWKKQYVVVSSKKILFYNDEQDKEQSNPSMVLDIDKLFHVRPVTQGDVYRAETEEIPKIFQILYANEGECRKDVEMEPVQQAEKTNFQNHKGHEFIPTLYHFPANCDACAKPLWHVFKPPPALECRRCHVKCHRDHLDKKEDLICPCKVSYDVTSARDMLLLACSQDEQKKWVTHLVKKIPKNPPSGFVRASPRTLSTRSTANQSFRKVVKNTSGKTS

ROCK2 = ROCK2 (Homo sapiens (Human), UniProt O75116); assay: ROCK assay (Caliper LABCHIP peptide phosphorylation), ROCK2; type: biochemical; conditions: 5 μM ATP, 1.5 μM peptide substrate;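 note: reaction stopped with EDTA, then phosphorylated and unphosphorylated peptide resolved by microfluidic electrophoresis, kinase inhibition computed at each compound concentration in dose-response series, DMSO under 2%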
Chain of ROCK2 (O75116 whole entry, species assumed): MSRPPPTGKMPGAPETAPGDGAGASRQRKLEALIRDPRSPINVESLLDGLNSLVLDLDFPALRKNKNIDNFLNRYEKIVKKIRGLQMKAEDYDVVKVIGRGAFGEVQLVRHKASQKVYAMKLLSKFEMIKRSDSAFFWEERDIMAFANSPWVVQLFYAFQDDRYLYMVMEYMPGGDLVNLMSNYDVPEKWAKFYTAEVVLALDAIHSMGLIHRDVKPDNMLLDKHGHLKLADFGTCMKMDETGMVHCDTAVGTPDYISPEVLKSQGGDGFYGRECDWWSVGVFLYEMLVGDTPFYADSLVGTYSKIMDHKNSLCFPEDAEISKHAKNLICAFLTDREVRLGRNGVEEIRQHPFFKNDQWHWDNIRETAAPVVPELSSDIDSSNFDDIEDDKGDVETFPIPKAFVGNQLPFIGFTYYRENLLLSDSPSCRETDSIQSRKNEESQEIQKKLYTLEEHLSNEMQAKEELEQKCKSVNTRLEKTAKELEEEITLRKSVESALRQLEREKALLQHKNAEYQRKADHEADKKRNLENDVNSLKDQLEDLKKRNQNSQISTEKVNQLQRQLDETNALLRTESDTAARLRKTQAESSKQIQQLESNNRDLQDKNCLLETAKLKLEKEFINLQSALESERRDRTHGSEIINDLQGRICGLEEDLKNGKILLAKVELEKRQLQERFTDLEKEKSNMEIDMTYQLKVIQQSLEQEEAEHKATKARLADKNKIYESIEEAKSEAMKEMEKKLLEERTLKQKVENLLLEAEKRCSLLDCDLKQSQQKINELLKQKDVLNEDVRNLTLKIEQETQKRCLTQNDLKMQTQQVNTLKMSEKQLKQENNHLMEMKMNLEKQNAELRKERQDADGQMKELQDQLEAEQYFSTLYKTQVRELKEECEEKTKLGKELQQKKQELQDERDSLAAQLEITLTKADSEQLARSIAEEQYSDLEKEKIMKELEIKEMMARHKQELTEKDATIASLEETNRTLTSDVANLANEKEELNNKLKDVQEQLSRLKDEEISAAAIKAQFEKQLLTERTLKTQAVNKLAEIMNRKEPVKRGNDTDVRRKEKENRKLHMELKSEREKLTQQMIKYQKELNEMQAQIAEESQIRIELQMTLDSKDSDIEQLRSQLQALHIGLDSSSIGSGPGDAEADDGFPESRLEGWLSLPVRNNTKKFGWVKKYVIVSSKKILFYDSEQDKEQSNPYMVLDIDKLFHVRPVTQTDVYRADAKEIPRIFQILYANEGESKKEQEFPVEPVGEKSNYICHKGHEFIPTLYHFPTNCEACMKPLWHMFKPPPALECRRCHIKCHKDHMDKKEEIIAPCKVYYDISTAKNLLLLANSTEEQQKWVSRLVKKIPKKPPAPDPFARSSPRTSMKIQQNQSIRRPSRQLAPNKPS

`COc1cc(C(=O)NC(C)c2ccccc2Cl)ccc1-c1cn[nH]c1` (racemic) [Example 4, (+/−)-N-(1-(2-chlorophenyl)ethyl)-3-methoxy-4-(1H-pyrazol-4-yl) benzamide] was tested, and the IC50 (ROCK1) was 0.0177 µM and the IC50 (ROCK2) was 0.00899 µM.
`COc1cc(C(=O)N[C@H]2C[C@@H]2c2ccccc2)ccc1-c1cn[nH]c1` (racemic) [Example 68, (+/−)-3-methoxy-N-(trans-2-phenyl-cyclopropyl)-4-(1H-pyrazol-4-yl)benzamide] was tested, and the IC50 (ROCK1) was 0.0301 µM and the IC50 (ROCK2) was 0.00852 µM.
Work on `COc1cc(C(=O)NC(C)c2cccc(CN3CCN(C)CC3)c2)ccc1-c1cn[nH]c1` (racemic) [Example 81, (+/−)-3-methoxy-N-(1-(3-((4-methylpiperazin-1-yl)methyl)phenyl)ethyl)-4-(1H-pyrazol-4-yl)benzamide] yielded an IC50 (ROCK1) of 0.156 µM and an IC50 (ROCK2) of 0.0283 µM.
Work on `CC(NC(=O)c1ccc(-c2cn[nH]c2)c(C(F)F)c1)c1ccccc1F` (racemic) [Example 299, 3-(Difluoromethyl)-N-(1-(2-fluorophenyl)ethyl)-4-(1H-pyrazol-4-yl)benzamide] yielded an IC50 (ROCK1) of 0.11 µM and an IC50 (ROCK2) of 0.0533 µM.
`CC(NC(=O)c1ccc(-c2cn[nH]c2)c(C(F)F)c1)c1ccccc1F` (single isomer, unassigned) [Example 300, 3-(Difluoromethyl)-N-(1-(2-fluorophenyl)ethyl)-4-(1H-pyrazol-4-yl)benzamide] showed an IC50 (ROCK1) of 0.108 µM and an IC50 (ROCK2) of 0.0771 µM.
Molecule `CC(NC(=O)c1ccc(-c2cn[nH]c2)c(C(F)F)c1)c1ccccc1F` (single isomer, unassigned) [Example 301, 3-(Difluoromethyl)-N-(1-(2-fluorophenyl)ethyl)-4-(1H-pyrazol-4-yl)benzamide] has an IC50 (ROCK1) of 0.582 µM and an IC50 (ROCK2) of 0.361 µM.
`COC(=O)CC(NC(=O)c1ccc(-c2cn[nH]c2)c(OC)c1)c1ccccc1` (stereo in doubt) [Example 92, methyl (3R)-3-{[3-methoxy-4-(1H-pyrazol-4-yl)phenyl] formamido}-3-phenyl-propanoate] gave an IC50 (ROCK1) of 0.0537 µM and an IC50 (ROCK2) of 0.0214 µM.
For `COc1cc(C(=O)NC(C)c2cccc3ccccc23)ccc1-c1cn[nH]c1` (stereo in doubt) [Example 172, 3-methoxy-N-[(1R)-1-(naphthalen-1-yl)ethyl]-4-(1H-pyrazol-4-yl)benzamide], the IC50 (ROCK1) was 0.00668 µM and the IC50 (ROCK2) was 0.00232 µM.
In the case of `COc1cc(C(=O)NC(C)c2ccccc2OC)ccc1-c1cn[nH]c1` (stereo in doubt) [Example 173, 3-methoxy-N-[(1R)-1-(2-methoxyphenyl)ethyl]-4-(1H-pyrazol-4-yl)benzamide], the IC50 (ROCK1) is reported as 0.0724 µM and the IC50 (ROCK2) is reported as 0.0272 µM.
Molecule `COc1cc(C(=O)NC2(c3ccccc3Cl)CC2)ccc1-c1cn[nH]c1` [Example 2, N-(1-(2-chlorophenyl)cyclopropyl)-3-methoxy-4-(1H-pyrazol-4-yl)benzamide] has an IC50 (ROCK1) of 0.0139 µM and an IC50 (ROCK2) of 0.00473 µM.
Molecule `COc1cc(C(=O)NCc2cccc(O)c2)ccc1-c1cn[nH]c1` [Example 6, N-(3-hydroxybenzyl)-3-methoxy-4-(1H-pyrazol-4-yl)benzamide] has an IC50 (ROCK2) of 0.00085 µM.
Molecule `COC(=O)c1cccc(CNC(=O)c2ccc(-c3cn[nH]c3)c(OC)c2)c1` [Example 8, methyl 3-((3-methoxy-4-(1H-pyrazol-4-yl)benzamido)methyl)benzoate] has an IC50 (ROCK2) of 0.00085 µM.
With `COc1cc(C(=O)NCc2csc(-c3ccccc3)n2)ccc1-c1cn[nH]c1` [Example 9, 3-methoxy-N-((2-phenylthiazol-4-yl)methyl)-4-(1H-pyrazol-4-yl)benzamide] the IC50 (ROCK1) was 0.155 µM and the IC50 (ROCK2) was 0.0619 µM.
`COc1cc(C(=O)NC(CN2CCOCC2)c2ccccc2)ccc1-c1cn[nH]c1` (stereo not shown) [Example 10, 3-methoxy-N-(2-morpholino-1-phenylethyl)-4-(1H-pyrazol-4-yl)benzamide] gave an IC50 (ROCK1) of 0.107 µM and an IC50 (ROCK2) of 0.0445 µM.
For `COc1cc(C(=O)NC(CNC(=O)OC(C)(C)C)c2ccccc2)ccc1-c1cn[nH]c1` (stereo not shown) [Example 11, tert-butyl (2-(3-methoxy-4-(1H-pyrazol-4-yl)benzamido)-2-phenylethyl) carbamate], the IC50 (ROCK1) was 0.108 µM.
Molecule `COc1cc(C(=O)NC(CN2CCN(C)CC2)c2ccccc2)ccc1-c1cn[nH]c1` (stereo not shown) [Example 13, 3-methoxy-N-(2-(4-methylpiperazin-1-yl)-1-phenylethyl)-4-(1H-pyrazol-4-yl)benzamide] has an IC50 (ROCK1) of 0.147 µM and an IC50 (ROCK2) of 0.0771 µM.
Work on `COc1cc(C(=O)NC(CN2CCCC2)c2ccccc2)ccc1-c1cn[nH]c1` (stereo not shown) [Example 14, 3-methoxy-N-(1-phenyl-2-(pyrrolidin-1-yl)ethyl)-4-(1H-pyrazol-4-yl)benzamide] yielded an IC50 (ROCK1) of 0.243 µM and an IC50 (ROCK2) of 0.0864 µM.
`COc1cc(C(=O)NCc2ccccn2)ccc1-c1cn[nH]c1` [Example 15, 3-methoxy-4-(1H-pyrazol-4-yl)-N-(pyridin-2-ylmethyl) benzamide] was tested, and the IC50 (ROCK1) was 0.184 µM and the IC50 (ROCK2) was 0.0604 µM.
Work on `COc1cc(C(=O)NCc2nc3ccccc3s2)ccc1-c1cn[nH]c1` [Example 16, N-(benzo[d]thiazol-2-ylmethyl)-3-methoxy-4-(1H-pyrazol-4-yl)benzamide] yielded an IC50 (ROCK1) of 0.556 µM and an IC50 (ROCK2) of 0.438 µM.
In the case of `COc1cc(C(=O)NCc2cccc(F)c2)ccc1-c1cn[nH]c1` [Example 17, N-(3-fluorobenzyl)-3-methoxy-4-(1H-pyrazol-4-yl)benzamide], the IC50 (ROCK1) is reported as 0.00842 µM and the IC50 (ROCK2) is reported as 0.00401 µM.
`COc1cc(C(=O)NCc2cccc(-c3ccccc3)c2)ccc1-c1cn[nH]c1` [Example 18, N-([1,1′-biphenyl]-3-ylmethyl)-3-methoxy-4-(1H-pyrazol-4-yl)benzamide] was tested, and the IC50 (ROCK1) was 0.334 µM and the IC50 (ROCK2) was 0.129 µM.
`COc1cc(C(=O)NCc2cccnc2)ccc1-c1cn[nH]c1` [Example 19, 3-methoxy-4-(1H-pyrazol-4-yl)-N-(pyridin-3-ylmethyl) benzamide] was tested, and the IC50 (ROCK1) was 0.104 µM and the IC50 (ROCK2) was 0.0238 µM.
For `COc1cc(C(=O)NC(C)c2ccccc2)ccc1-c1cn[nH]c1` (stereo not shown) [Example 20, 3-methoxy-N-(1-phenylethyl)-4-(1H-pyrazol-4-yl)benzamide], the IC50 (ROCK1) was 0.0105 µM and the IC50 (ROCK2) was 0.00224 µM.
Molecule `COc1cc(C(=O)NCc2ccccc2OC(F)(F)F)ccc1-c1cn[nH]c1` [Example 22, 3-methoxy-4-(1H-pyrazol-4-yl)-N-(2-(trifluoro-methoxy)benzyl) benzamide] has an IC50 (ROCK1) of 0.0858 µM and an IC50 (ROCK2) of 0.0602 µM.
In the case of `COc1cc(C(=O)NCc2ccccc2C)ccc1-c1cn[nH]c1` [Example 23, 3-methoxy-N-(2-methylbenzyl)-4-(1H-pyrazol-4-yl)benzamide], the IC50 (ROCK1) is reported as 0.00736 µM and the IC50 (ROCK2) is reported as 0.00213 µM.
Molecule `COc1cc(C(=O)NCCc2ccc(F)cc2)ccc1-c1cn[nH]c1` [Example 24, N-(4-fluorophenethyl)-3-methoxy-4-(1H-pyrazol-4-yl)benzamide] has an IC50 (ROCK1) of 0.0374 µM and an IC50 (ROCK2) of 0.0156 µM.
`COc1cc(C(=O)NCc2ccccc2F)ccc1-c1cn[nH]c1` [Example 25, N-(2-fluorobenzyl)-3-methoxy-4-(1H-pyrazol-4-yl)benzamide] gave an IC50 (ROCK1) of 0.0079 µM and an IC50 (ROCK2) of 0.00265 µM.
With `COc1cc(C(=O)NCc2ccccc2C(F)(F)F)ccc1-c1cn[nH]c1` [Example 26, 3-methoxy-4-(1H-pyrazol-4-yl)-N-(2-(trifluoromethyl)benzyl)benzamide] the IC50 (ROCK1) was 0.0204 µM and the IC50 (ROCK2) was 0.0209 µM.
With `COc1cc(C(=O)NCc2ccccc2)ccc1-c1cn[nH]c1` [Example 27, N-benzyl-3-methoxy-4-(1H-pyrazol-4-yl) benzamide] the IC50 (ROCK1) was 0.0128 µM and the IC50 (ROCK2) was 0.0026 µM.
`COc1cc(C(=O)NCc2cccc(OC(F)(F)F)c2)ccc1-c1cn[nH]c1` [Example 28, 3-methoxy-4-(1H-pyrazol-4-yl)-N-(3-(trifluoro-methoxy)benzyl) benzamide] gave an IC50 (ROCK1) of 1.71 µM and an IC50 (ROCK2) of 0.0409 µM.
For `COc1cc(C(=O)NCc2cccc(Cl)c2Cl)ccc1-c1cn[nH]c1` [Example 29, N-(2,3-dichlorobenzyl)-3-methoxy-4-(1H-pyrazol-4-yl)benzamide], the IC50 (ROCK1) was 0.00577 µM and the IC50 (ROCK2) was 0.00253 µM.
With `COc1cc(C(=O)NC(C)(C)c2ccccc2)ccc1-c1cn[nH]c1` [Example 30, 3-methoxy-N-(2-phenylpropan-2-yl)-4-(1H-pyrazol-4-yl)benzamide] the IC50 (ROCK1) was 0.214 µM and the IC50 (ROCK2) was 0.129 µM.
In the case of `COc1cc(C(=O)NCc2ccccc2O)ccc1-c1cn[nH]c1` [Example 31, N-(2-hydroxybenzyl)-3-methoxy-4-(1H-pyrazol-4-yl)benzamide], the IC50 (ROCK1) is reported as 0.0092 µM and the IC50 (ROCK2) is reported as 0.00562 µM.
Work on `COc1cc(C(=O)NCc2cccc(C(F)(F)F)c2)ccc1-c1cn[nH]c1` [Example 32, 3-methoxy-4-(1H-pyrazol-4-yl)-N-(3-(trifluoro-methyl)benzyl) benzamide] yielded an IC50 (ROCK1) of 0.0433 µM and an IC50 (ROCK2) of 0.0115 µM.
`COc1cc(C(=O)NCCc2ccccc2Cl)ccc1-c1cn[nH]c1` [Example 35, N-(2-chloro-phenethyl)-3-methoxy-4-(1H-pyrazol-4-yl)benzamide] was tested, and the IC50 (ROCK1) was 0.0165 µM and the IC50 (ROCK2) was 0.0066 µM.
With `COc1cc(C(=O)NCCc2ccccc2)ccc1-c1cn[nH]c1` [Example 36, 3-methoxy-N-phenethyl-4-(1H-pyrazol-4-yl)benzamide] the IC50 (ROCK1) was 0.0281 µM and the IC50 (ROCK2) was 0.0105 µM.
`COc1cc(C(=O)NCc2ccc(Cl)cc2S(=O)(=O)CC(C)C)ccc1-c1cn[nH]c1` [Example 37, N-(4-chloro-2-(isobutyl-sulfonyl)benzyl)-3-methoxy-4-(1H-pyrazol-4-yl)benzamide] showed an IC50 (ROCK1) of 2.44 µM and an IC50 (ROCK2) of 1.41 µM.
Work on `COc1cc(C(=O)NCc2ccc3c(c2)OCO3)ccc1-c1cn[nH]c1` [Example 38, N-(benzo[d] [1,3]dioxol-5-ylmethyl)-3-methoxy-4-(1H-pyrazol-4-yl)benzamide] yielded an IC50 (ROCK1) of 0.0348 µM and an IC50 (ROCK2) of 0.0142 µM.
Work on `CNC(=O)c1cccc(CNC(=O)c2ccc(-c3cn[nH]c3)c(OC)c2)c1` [Example 65, 3-Methoxy-N-(3-(methylcarbamoyl)benzyl)-4-(1H-pyrazol-4-yl)benzamide] yielded an IC50 (ROCK2) of 0.00085 µM.
`COc1cc(C(=O)NC(C)Cc2ccc(F)cc2)ccc1-c1cn[nH]c1` (stereo not shown) [Example 111, N-[1-(4-fluorophenyl)propan-2-yl]-3-methoxy-4-(1H-pyrazol-4-yl)benzamide] was tested, and the IC50 (ROCK1) was 0.0358 µM.
With `C[C@@H](NC(=O)c1cc(F)c(-c2cn[nH]c2)cc1OCCN(C)C)c1ccccc1` [Example 310, 2-[2-(dimethylamino)ethoxy]-5-fluoro-N-[(1R)-1-phenylethyl]-4-(1H-pyrazol-4-yl)benzamide] the IC50 (ROCK2) was 0.675 µM.
